The data set is described as follows: membrane/water partition coefficient calculated from CV peak current ratio of uncoated and PVC membrane-coated GC electrode (Equation 1). Format: physicochemical.

Regarding `CC(=O)Nc1ccc(O)cc1` [APAP, 4-acetamidophenol], the “Pmw (membrane/water partition coefficient)” value is listed as 0.1 (PVC membrane I (o-NPOE), Cw=1 mM, iw/im ~140, Dm=4×10^−8 cm^2/s, Dw=8×10^−6 cm^2/s); 0.5 (membrane III (DOS), same protocol); 1.6 (membrane V (1-octanol), same protocol).

Values taken from US11375929B2, “Method and device for detection of bioavailable drug concentration in a fluid sample” (THE UNIVERSITY OF TENNESSEE RESEARCH FOUNDATION, priority 2008, dated 2022).
